# Experimental data as given in ChEMBL document CHEMBL5346873, “Strategic modification of low-activity natural antimicrobial peptides confers antibacterial potential in vitro and in vivo” (Eur J Med Chem, 2023).
# Calls of active or inactive are those of the source. The calls are words filed in the database; no cut-off is given here.
# Legend:
# [1] = Cytotoxicity against human HaCaT cells incubated for 24 hrs by alamar blue assay; format: toxicity, cell-based; settings: read-out: LD50
# Salmonella typhimurium = test: Bactericidal activity against Salmonella typhimurium incubated overnight; format: functional, Salmonella enterica subsp. enterica serovar Typhimurium; settings: Salmonella enterica
# [2] = Cytotoxicity against human HaCaT cells incubated for 24 hrs by LDH assay; format: toxicity, cell-based; settings: read-out: LD50
# Vibrio anguillarum = test: Bactericidal activity against Listonella anguillarum incubated overnight; format: functional
# Vibrio harveyi [3] = test: Antibacterial activity against Vibrio harveyi incubated for 16 to 20 hrs; format: functional; settings: time 16-20 hrs
# Vibrio vulnificus [4] = test: Antibiofilm activity against Vibrio vulnificus V1 assessed as inhibition of biofilm formation at 25 to 100 ug/ml incubated for 24 hrs by crystal violet staining based assay; format: functional, organism-based; settings: dose 25-100 µg/ml
# Acinetobacter baumannii [5] = test: Synergistic antibacterial activity against Acinetobacter baumannii assessed as doxycycline MIC by checkerboard microtiter plate assay; format: functional
# [6] = Dermal toxicity in BALB/c mouse assessed as irritation at 125 mg/kg, TOPp measured after 48 hrs; format: organism-based; settings: in vivo, topical_or_ocular
# Aeromonas hydrophila [7] = test: Bactericidal activity against Aeromonas hydrophila incubated overnight; format: functional
# Escherichia coli [8] = test: Bactericidal activity against Escherichia coli incubated overnight; format: functional
# Salmonella enterica [9] = test: Bactericidal activity against Salmonella enterica incubated overnight; format: functional
# Enterococcus faecalis = test: Bactericidal activity against Enterococcus faecalis incubated overnight; format: functional
# Vibrio vulnificus [10] = test: Antibiofilm activity against Vibrio vulnificus 204 assessed as inhibition of biofilm formation at 25 ug/ml incubated for 24 hrs by crystal violet staining based assay; format: functional, organism-based; settings: dose 25.0 µg/ml
# Streptococcus iniae [11] = test: Additive antibacterial activity against Streptococcus iniae assessed as fractional inhibitory concentration in presence of meropenem by checkerboard microtiter plate assay; format: functional
# Staphylococcus aureus = test: Bactericidal activity against Staphylococcus aureus incubated for overnight; format: functional
# Vibrio vulnificus [12] = test: Synergistic antibacterial activity against Vibrio vulnificus assessed as fractional inhibitory concentration in presence of doxycycline by checkerboard microtiter plate assay; format: functional
# Vibrio vulnificus [13] = test: Antibiofilm activity against Vibrio vulnificus V1 assessed as inhibition of biofilm formation at 50 to 100 ug/ml incubated for 24 hrs by crystal violet staining based assay; format: functional, organism-based; settings: dose 50-100 µg/ml
# Nakaseomyces glabratus = test: Antifungal activity against Candida glabrata incubated for 16 to 20 hrs; format: functional; settings: time 16-20 hrs
# Klebsiella pneumoniae [14] = test: Synergistic antibacterial activity against Klebsiella pneumoniae expressing NDM1 assessed as fractional inhibitory concentration in presence of doxycycline by checkerboard microtiter plate assay; format: functional
# Enterococcus faecium = test: Antibacterial activity against Enterococcus faecium incubated for 16 to 20 hrs; format: functional; settings: time 16-20 hrs
# Klebsiella pneumoniae [15] = test: Synergistic antibacterial activity against Klebsiella pneumoniae expressing NDM1 assessed as doxycycline MIC by checkerboard microtiter plate assay; format: functional
# Klebsiella aerogenes [16] = test: Synergistic antibacterial activity against Enterobacter aerogenes assessed as meropenem MIC by checkerboard microtiter plate assay; format: functional
# Acinetobacter baumannii [17] = test: Synergistic antibacterial activity against Acinetobacter baumannii in presence of doxycycline by checkerboard microtiter plate assay; format: functional
# Escherichia coli [18] = test: Synergistic antibacterial activity against Escherichia coli assessed as meropenem MIC by checkerboard microtiter plate assay; format: functional
# Streptococcus agalactiae = test: Synergistic antibacterial activity against Streptococcus agalactiae in presence of meropenem by checkerboard microtiter plate assay; format: functional
# Salmonella enterica [19] = test: Antibacterial activity against Salmonella enterica incubated for 16 to 20 hrs; format: functional; settings: time 16-20 hrs
# Vibrio harveyi [20] = test: Bactericidal activity against Vibrio harveyi incubated overnight; format: functional
# Acinetobacter baumannii [21] = test: Additive antibacterial activity against Acinetobacter baumannii in presence of meropenem by checkerboard microtiter plate assay; format: functional
# Klebsiella aerogenes [22] = test: Synergistic antibacterial activity against Enterobacter aerogenes assessed as fractional inhibitory concentration in presence of meropenem by checkerboard microtiter plate assay; format: functional
# Pseudomonas aeruginosa [23] = test: Additive antibacterial activity against Pseudomonas aeruginosa in presence of meropenem by checkerboard microtiter plate assay; format: functional
# Escherichia coli [24] = test: Antibacterial activity against Escherichia coli incubated for 16 to 20 hrs; format: functional; settings: time 16-20 hrs
# Vibrio vulnificus [25] = test: Synergistic antibacterial activity against Vibrio vulnificus assessed as doxycycline MIC by checkerboard microtiter plate assay; format: functional
# Vibrio vulnificus [26] = test: Antibacterial activity against Vibrio vulnificus V3 incubated for 16 to 20 hrs; format: functional; settings: time 16-20 hrs
# Cell membrane [27] = test: Induction of membrane depolarization in Vibrio vulnificus at 100 ug/ml by DiBAC4(3) dye based fluorescence analysis; format: subcellular; settings: dose 100.0 µg/ml
# Edwardsiella tarda = test: Antibacterial activity against Edwardsiella tarda incubated for 16 to 20 hrs; format: functional; settings: time 16-20 hrs
# Klebsiella pneumoniae [28] = test: Synergistic antibacterial activity against Klebsiella pneumoniae expressing NDM1 in presence of doxycycline by checkerboard microtiter plate assay; format: functional
# Vibrio vulnificus [29] = test: Antibacterial activity against Vibrio vulnificus in presence of 0.1 ug/ml trypsin; format: functional, organism-based
# Vibrio vulnificus [30] = test: Bactericidal activity against Vibrio vulnificus V2 incubated overnight; format: functional
# Vibrio vulnificus [31] = test: Synergistic antibacterial activity against Vibrio vulnificus in presence of doxycycline by checkerboard microtiter plate assay; format: functional
# Escherichia coli [32] = test: Synergistic antibacterial activity against Escherichia coli in presence of meropenem by checkerboard microtiter plate assay; format: functional
# Vibrio vulnificus [33] = test: Antibiofilm activity against Vibrio vulnificus V3 assessed as inhibition of biofilm formation at 25 to 100 ug/ml incubated for 24 hrs by crystal violet staining based assay; format: functional, organism-based; settings: dose 25-100 µg/ml
# Streptococcus iniae [34] = test: Additive antibacterial activity against Streptococcus iniae in presence of meropenem by checkerboard microtiter plate assay; format: functional
# Vibrio vulnificus [35] = test: Antibiofilm activity against Vibrio vulnificus 204 assessed as inhibition of biofilm formation at 25 to 100 ug/ml incubated for 24 hrs by crystal violet staining based assay; format: functional, organism-based; settings: dose 25-100 µg/ml
# Vibrio vulnificus [36] = test: Antibacterial activity against Vibrio vulnificus in presence of 1 to 10 ug/ml trypsin; format: functional, organism-based
# Pseudomonas aeruginosa [37] = test: Bactericidal activity against Pseudomonas aeruginosa incubated overnight; format: functional
# Klebsiella aerogenes [38] = test: Antibacterial activity against Enterobacter aerogenes incubated for 16 to 20 hrs; format: functional; settings: time 16-20 hrs
# Klebsiella oxytoca = test: Antibacterial activity against Klebsiella oxytoca incubated for 16 to 20 hrs; format: functional; settings: time 16-20 hrs
# Streptococcus iniae [39] = test: Additive antibacterial activity against Streptococcus iniae assessed as meropenem MIC by checkerboard microtiter plate assay; format: functional
# Streptococcus iniae [40] = test: Antibacterial activity against Streptococcus iniae incubated for 16 to 20 hrs; format: functional; settings: time 16-20 hrs
# Vibrio vulnificus [41] = test: Synergistic antibacterial activity against Vibrio vulnificus assessed as meropenem MIC by checkerboard microtiter plate assay; format: functional
# Streptococcus iniae [42] = test: Synergistic antibacterial activity against Streptococcus iniae assessed as fractional inhibitory concentration in presence of doxycycline by checkerboard microtiter plate assay; format: functional
# Aeromonas hydrophila [43] = test: Antibacterial activity against Aeromonas hydrophila incubated for 16 to 20 hrs; format: functional; settings: time 16-20 hrs
# Candida tropicalis = test: Antifungal activity against Candida tropicalis incubated for 16 to 20 hrs; format: functional; settings: time 16-20 hrs
# [44] = tested on: Staphylococcus haemolyticus; test: Antibacterial activity against Staphylococcus haemolyticus incubated for 16 to 20 hrs; format: functional; settings: time 16-20 hrs
# Vibrio vulnificus [45] = test: Antibiofilm activity against Vibrio vulnificus V2 assessed as inhibition of biofilm formation at 50 to 100 ug/ml incubated for 24 hrs by crystal violet staining based assay; format: functional, organism-based; settings: dose 50-100 µg/ml
# Vibrio vulnificus [46] = test: Bactericidal activity against Vibrio vulnificus V1 incubated overnight; format: functional
# Cell membrane [47] = test: Induction of membrane deformation in Vibrio vulnificus at 1 to 2 times MIC incubated for 30 mins by SEM analysis; format: subcellular
# Pseudomonas aeruginosa [48] = test: Additive antibacterial activity against Pseudomonas aeruginosa assessed as meropenem MIC by checkerboard microtiter plate assay; format: functional
substance,measurement,setting,value
H-KKCIAKAILKKAKKLLKKLVNP-OH,CC50 at 24 h,[1],> 100 µg/mL
same,MBC,Salmonella typhimurium,100 µg/mL
same,CC50 at 24 h,[2],> 100 µg/mL
same,MBC,Vibrio anguillarum,50 µg/mL
same,MIC,Vibrio harveyi [3],25 µg/mL
same,Activity,Vibrio vulnificus [4],Active
same,MIC,Acinetobacter baumannii [5],0.003 µg/mL
same,Activity,[6],Non-Toxic
same,MBC,Aeromonas hydrophila [7],> 100 µg/mL
same,MBC,Escherichia coli [8],12.5 µg/mL
same,MBC,Salmonella enterica [9],12.5 µg/mL
same,MBC,Enterococcus faecalis,> 100 µg/mL
same,Activity,Vibrio vulnificus [10],inactive
same,FIC,Streptococcus iniae [11],0.51
same,MBC,Staphylococcus aureus,> 100 µg/mL
same,FIC,Vibrio vulnificus [12],0.14
same,Activity,Vibrio vulnificus [13],Active
same,MIC,Nakaseomyces glabratus,> 100 µg/mL
same,FIC,Klebsiella pneumoniae [14],0.37
same,MIC,Enterococcus faecium,> 100 µg/mL
same,MIC,Klebsiella pneumoniae [15],3.12 µg/mL
same,MIC,Klebsiella aerogenes [16],0.003 µg/mL
same,MIC,Acinetobacter baumannii [17],0.048 µg/mL
same,MIC,Escherichia coli [18],0.001 µg/mL
same,MIC,Streptococcus agalactiae,0.195 µg/mL
same,MIC,Salmonella enterica [19],12.5 µg/mL
same,MBC,Vibrio harveyi [20],25 µg/mL
same,MIC,Acinetobacter baumannii [21],0.048 µg/mL
same,FIC,Klebsiella aerogenes [22],0.14
same,MIC,Pseudomonas aeruginosa [23],0.78 µg/mL
same,MIC,Escherichia coli [24],12.5 µg/mL
same,MIC,Vibrio vulnificus [25],0.006 µg/mL
same,MIC,Vibrio vulnificus [26],12.5 µg/mL
same,Activity,Cell membrane [27],Active
same,MIC,Edwardsiella tarda,> 100 µg/mL
same,MIC,Klebsiella pneumoniae [28],3.12 µg/mL
same,Activity,Vibrio vulnificus [29],Active
same,MBC,Vibrio vulnificus [30],12.5 µg/mL
same,MIC,Vibrio vulnificus [31],0.195 µg/mL
same,MIC,Escherichia coli [32],0.39 µg/mL
same,Activity,Vibrio vulnificus [33],Active
same,MIC,Streptococcus iniae [34],0.048 µg/mL
same,Activity,Vibrio vulnificus [35],Active
same,Activity,Vibrio vulnificus [36],Active
same,MBC,Pseudomonas aeruginosa [37],50 µg/mL
same,MIC,Klebsiella aerogenes [38],12.5 µg/mL
same,MIC,Klebsiella oxytoca,50 µg/mL
same,MIC,Streptococcus iniae [39],0.195 µg/mL
same,MIC,Streptococcus iniae [40],< 1.56 µg/mL
same,MIC,Vibrio vulnificus [41],0.003 µg/mL
same,FIC,Streptococcus iniae [42],0.04
same,MIC,Aeromonas hydrophila [43],> 100 µg/mL
same,MIC,Candida tropicalis,100 µg/mL
same,MIC,[44],< 1.56 µg/mL
same,Activity,Vibrio vulnificus [45],Active
same,MBC,Vibrio vulnificus [46],12.5 µg/mL
same,Activity,Cell membrane [47],Active
same,MIC,Pseudomonas aeruginosa [48],0.195 µg/mL
